Reference: patent US20240390503A1, “Green Tea-based Nanocomplexes for Eye Disease” (Agency for Science, Technology and Research, priority 2021, published 2024)
Entries after “also recorded” stand apart in the source; their conditions may differ. Where two headings read alike, the source gives them in different places.

Columns and labels:
[1] = tested on: Human umbilical vein endothelial cells (HUVECs); experiment: Inhibitory effects on VEGF-activated endothelial cell proliferation (AlamarBlue); format: cell-based; settings: HUVEC, 3 days, read-out: IC50, anti-proliferative effect
Procedure: Human umbilical vein endothelial cells (HUVECs) were obtained from Lonza Biologics Tuas Pte Ltd (Singapore), and cultured in the endothelial cell basal medium (EBM-2) supplemented with EGM-2 SingleQuots (Lonza Biologics Tuas Pte Ltd, Singapore). HUVECs were seeded in 96-well plates (5×10^3 cells/well, n=5) and cultured for one day for cell attachment.
After 3 days, the cell viability was measured by using AlamarBlue® reagent (Life Technologies, USA) according to the manufacturer's protocol. Briefly, the medium was replaced by phenol red-free media containing 10% AlamarBlue® reagent. After incubation for 4 hours at 37° C., fluorescence intensity (λex=549 nm and λem=587 nm) was measured by a microplate reader (Tecan Group Ltd., Switzerland). Results were expressed as a percentage of viable cells relative to untreated cells.
The CI values of HA-EGCG and drug combination were calculated with the following equation using the CompuSyn software: […]

Vldlr^−/− mice = experiment: In vivo anti-angiogenesis effect on Vldlr−/− mice (relative number of retinal lesions, fluorescein angiography)
AMD patients [2] = settings: cited from earlier work
AMD patients [3] = settings: oral, cited from earlier work

Question: With CCN(CC)CCNC(=O)c1c(C)[nH]c(/C=C2\C(=O)Nc3ccc(F)cc32)c1C [SU, Sunitinib malate] as the molecule, how does the IC50 ([1]; Homo sapiens, 72 h, VEGF-activated conditions) read?
Answer: The IC50 was 4.32 µM.

Question: What about the IC50 ([1]; Homo sapiens, 72 h, normal growth conditions) of the same molecule?
Answer: Its IC50 is 6.59 µM.

Question: And the “progression of retinal lesions” value (Vldlr^−/− mice; topical, SU 0.50 mg/mL, 10 μL, 3×/day, 28 days)?
Answer: Its value is “no efficacy”.

Question: Which “AMD patients with improved visual acuity” value (AMD patients [2]; monthly IVT injection, 0.5 mg) does the source give for Ranibizumab here?
Answer: The value was 33.8%.

Question: What about the “incidence of increased intraocular pressure” value (AMD patients [2]; two year treatment) of the same molecule?
Answer: Its value is 24%.

Question: And the “incidence of intraocular inflammation” value (AMD patients [2]; two year treatment)?
Answer: The value was 18%.

Question: What does the source list for Aflibercept?
Answer: IC50 ([1]; VEGF-activated conditions): > 0.21 µM; CNV inhibitory effect (Vldlr^−/− mice; IVT, 2.0 μg/0.5 μL, 1× at day 0): observed only in the early stages of treatment and diminished over time; also recorded: effective only in the first 7 days; retinal lesion development (Vldlr^−/− mice; topical, AF 0.2 mg/mL or equivalent HA-EGCG/chitosan, 10 μL, 3×/day, 31 days): failed to suppress the lesion progression

Question: For Cc1[nH]c(/C=C2\C(=O)Nc3ccc(F)cc32)c(C)c1C(=O)N[C@H]1CCN(C(=O)N(C)C)C1 [Vorolanib], which “AMD patients with improved visual acuity” value (AMD patients [3]; phase 1, completed 24 weeks treatment) is on record?
Answer: Its value is 24 out of 25.

Question: And the “participants who discontinued due to severe systemic adverse effects” value (AMD patients [3]; phase 1)?
Answer: Its value is 17%.

Question: And the “visual acuity compared to placebo” value (AMD patients [3]; phase 2, at 52 weeks)?
Answer: Its value is “did not improve visual acuity”.
